Experimental data as given in patent US11608323B2 (SYNGENTA LIMITED, priority 2013, dated 2023).

How the values were obtained:
Type in all cases: in vivo
AMARE [1] = assay: Pre-emergence herbicidal activity, glasshouse pot test; settings: rate 1000 g/Ha, evaluated after 13 days, scale 0-5
Method: (§1) Seeds of a variety of test species were sown in standard soil in pots. After cultivation for one day (pre-emergence) under controlled conditions in a glasshouse (at 24/16° C., day/night; 14 hours light; 65% humidity), the plants were sprayed with an aqueous spray solution derived from the formulation of the technical active ingredient in acetone/water (50:50) solution containing 0.5% Tween 20 (polyoxyethelyene sorbitan monolaurate, CAS RN 9005-64-5). The test plants were then grown in a glasshouse under controlled conditions (at 24/16° C., day/night; 14 hours light; 65% humidity) and watered twice daily. After 13 days, the test was evaluated (5=total damage to plant; 0=no damage to plant).

SETFA [2] = assay: as above; settings: rate 1000 g/Ha, evaluated after 13 days, scale 0-5
Method: as §1

ABUTH [3] = assay: as above; settings: rate 1000 g/Ha, evaluated after 13 days, scale 0-5
Method: as §1

ECHCG [4] = assay: as above; settings: rate 1000 g/Ha, evaluated after 13 days, scale 0-5
Method: as §1

ZEAMX [5] = assay: as above; settings: rate 1000 g/Ha, evaluated after 13 days, scale 0-5
Method: as §1

AMARE [6] = assay: Post-emergence herbicidal activity, glasshouse pot test; settings: Amaranthus retroflexus; application post-emergence; rate 1000 g/Ha; evaluated after 13 days
Method: (§2) Seeds of a variety of test species were sown in standard soil in pots. After 8 days cultivation (post-emergence) under controlled conditions in a glasshouse (at 24/16° C., day/night; 14 hours light; 65% humidity), the plants were sprayed with an aqueous spray solution derived from the formulation of the technical active ingredient in acetone/water (50:50) solution containing 0.5% Tween 20 (polyoxyethelyene sorbitan monolaurate, CAS RN 9005-64-5). The test plants were then grown in a glasshouse under controlled conditions (at 24/16° C., day/night; 14 hours light; 65% humidity) and watered twice daily. After 13 days, the test was evaluated (5=total damage to plant; 0=no damage to plant).

SETFA [7] = assay: as above; settings: Setaria faberi; application post-emergence; rate 1000 g/Ha; evaluated after 13 days
Method: as §2

ABUTH [8] = assay: as above; settings: Abutilon theophrasti; application post-emergence; rate 1000 g/Ha; evaluated after 13 days
Method: as §2

ECHCG [9] = assay: as above; settings: Echinochloa crus-galli; application post-emergence; rate 1000 g/Ha; evaluated after 13 days
Method: as §2

ZEAMX [10] = assay: as above; settings: Zea mays; application post-emergence; rate 1000 g/Ha; evaluated after 13 days
Method: as §2

## CN1C(=O)N(c2ccc(C(F)(F)F)cn2)C(O)C1O (stereo not drawn) [Compound A81]
AMARE [1]
  AMARE damage score, application pre-emergence: 3
SETFA [2]
  SETFA damage score, application pre-emergence: 2
ABUTH [3]
  ABUTH damage score, application pre-emergence: 2
ECHCG [4]
  ECHCG damage score, application pre-emergence: 0
ZEAMX [5]
  ZEAMX damage score, application pre-emergence: 0
AMARE [6]
  Post-emergence herbicidal activity AMARE (damage score 0-5): 4
SETFA [7]
  Post-emergence herbicidal activity SETFA (damage score 0-5): 2
ABUTH [8]
  Post-emergence herbicidal activity ABUTH (damage score 0-5): 4
ECHCG [9]
  Post-emergence herbicidal activity ECHCG (damage score 0-5): 2
ZEAMX [10]
  Post-emergence herbicidal activity ZEAMX (damage score 0-5): 0

## CCOC1C(O)N(c2cc(C(F)(F)C(F)(F)F)ccn2)C(=O)N1C (stereo not drawn) [Compound A82]
AMARE [1]
  AMARE damage score, application pre-emergence: 5
SETFA [2]
  SETFA damage score, application pre-emergence: 3
ABUTH [3]
  ABUTH damage score, application pre-emergence: 5
ECHCG [4]
  ECHCG damage score, application pre-emergence: 3
ZEAMX [5]
  ZEAMX damage score, application pre-emergence: 2
AMARE [6]
  Post-emergence herbicidal activity AMARE (damage score 0-5): 5
SETFA [7]
  Post-emergence herbicidal activity SETFA (damage score 0-5): 4
ABUTH [8]
  Post-emergence herbicidal activity ABUTH (damage score 0-5): 5
ECHCG [9]
  Post-emergence herbicidal activity ECHCG (damage score 0-5): 4
ZEAMX [10]
  Post-emergence herbicidal activity ZEAMX (damage score 0-5): 2

## C=Cc1cnc(N2C(=O)N(C)C(C)C2O)cc1C(F)(F)F (stereo not drawn) [Compound A62]
AMARE [1]
  AMARE damage score, application pre-emergence: 5
SETFA [2]
  SETFA damage score, application pre-emergence: 3
ABUTH [3]
  ABUTH damage score, application pre-emergence: 4
ECHCG [4]
  ECHCG damage score, application pre-emergence: 4
ZEAMX [5]
  ZEAMX damage score, application pre-emergence: 2
AMARE [6]
  Post-emergence herbicidal activity AMARE (damage score 0-5): 5
SETFA [7]
  Post-emergence herbicidal activity SETFA (damage score 0-5): 5
ABUTH [8]
  Post-emergence herbicidal activity ABUTH (damage score 0-5): 5
ECHCG [9]
  Post-emergence herbicidal activity ECHCG (damage score 0-5): 5
ZEAMX [10]
  Post-emergence herbicidal activity ZEAMX (damage score 0-5): 2

## CC1C(O)N(c2cc(C(F)(F)F)ccn2)C(=O)N1C(F)F (stereo not drawn) [Compound A106]
AMARE [1]
  AMARE damage score, application pre-emergence: 5
SETFA [2]
  SETFA damage score, application pre-emergence: 3
ABUTH [3]
  ABUTH damage score, application pre-emergence: 5
ECHCG [4]
  ECHCG damage score, application pre-emergence: 4
ZEAMX [5]
  ZEAMX damage score, application pre-emergence: 2
AMARE [6]
  Post-emergence herbicidal activity AMARE (damage score 0-5): 5
SETFA [7]
  Post-emergence herbicidal activity SETFA (damage score 0-5): 4
ABUTH [8]
  Post-emergence herbicidal activity ABUTH (damage score 0-5): 5
ECHCG [9]
  Post-emergence herbicidal activity ECHCG (damage score 0-5): 4
ZEAMX [10]
  Post-emergence herbicidal activity ZEAMX (damage score 0-5): 1

## O=C1N2COCC2C(O)N1c1cc(C(F)(F)F)ccn1 (single isomer, unassigned) [Compound A94]
AMARE [1]
  AMARE damage score, application pre-emergence: 5
SETFA [2]
  SETFA damage score, application pre-emergence: 5
ABUTH [3]
  ABUTH damage score, application pre-emergence: 5
ECHCG [4]
  ECHCG damage score, application pre-emergence: 5
ZEAMX [5]
  ZEAMX damage score, application pre-emergence: 4
AMARE [6]
  Post-emergence herbicidal activity AMARE (damage score 0-5): 5
SETFA [7]
  Post-emergence herbicidal activity SETFA (damage score 0-5): 5
ABUTH [8]
  Post-emergence herbicidal activity ABUTH (damage score 0-5): 5
ECHCG [9]
  Post-emergence herbicidal activity ECHCG (damage score 0-5): 5
ZEAMX [10]
  Post-emergence herbicidal activity ZEAMX (damage score 0-5): 5

## CC1C(O)N(c2cc(Cl)c(C(=O)NC(C)(C)C)cn2)C(=O)N1C (stereo not drawn) [Compound A71]
AMARE [1]
  AMARE damage score, application pre-emergence: 5
SETFA [2]
  SETFA damage score, application pre-emergence: 0
ABUTH [3]
  ABUTH damage score, application pre-emergence: 5
ECHCG [4]
  ECHCG damage score, application pre-emergence: 5
ZEAMX [5]
  ZEAMX damage score, application pre-emergence: 3
AMARE [6]
  Post-emergence herbicidal activity AMARE (damage score 0-5): 5
SETFA [7]
  Post-emergence herbicidal activity SETFA (damage score 0-5): 5
ABUTH [8]
  Post-emergence herbicidal activity ABUTH (damage score 0-5): 5
ECHCG [9]
  Post-emergence herbicidal activity ECHCG (damage score 0-5): 5
ZEAMX [10]
  Post-emergence herbicidal activity ZEAMX (damage score 0-5): 4

## C=CCN1C(=O)N(c2cc(C(F)(F)F)ccn2)C(O)C1C (stereo not drawn) [Compound A107]
AMARE [1]
  AMARE damage score, application pre-emergence: 5
SETFA [2]
  SETFA damage score, application pre-emergence: 4
ABUTH [3]
  ABUTH damage score, application pre-emergence: 5
ECHCG [4]
  ECHCG damage score, application pre-emergence: 5
ZEAMX [5]
  ZEAMX damage score, application pre-emergence: 2
AMARE [6]
  Post-emergence herbicidal activity AMARE (damage score 0-5): 5
SETFA [7]
  Post-emergence herbicidal activity SETFA (damage score 0-5): 5
ABUTH [8]
  Post-emergence herbicidal activity ABUTH (damage score 0-5): 5
ECHCG [9]
  Post-emergence herbicidal activity ECHCG (damage score 0-5): 5
ZEAMX [10]
  Post-emergence herbicidal activity ZEAMX (damage score 0-5): 3

## CCO[C@H]1C(O)N(c2cc(C(F)(F)F)ccn2)C(=O)N1C (single isomer, unassigned) [Compound A35]
AMARE [1]
  AMARE damage score, application pre-emergence: 5
SETFA [2]
  SETFA damage score, application pre-emergence: 4
ABUTH [3]
  ABUTH damage score, application pre-emergence: 4
ECHCG [4]
  ECHCG damage score, application pre-emergence: 4
ZEAMX [5]
  ZEAMX damage score, application pre-emergence: 2
AMARE [6]
  Post-emergence herbicidal activity AMARE (damage score 0-5): 5
SETFA [7]
  Post-emergence herbicidal activity SETFA (damage score 0-5): 3
ABUTH [8]
  Post-emergence herbicidal activity ABUTH (damage score 0-5): 0
ECHCG [9]
  Post-emergence herbicidal activity ECHCG (damage score 0-5): 3
ZEAMX [10]
  Post-emergence herbicidal activity ZEAMX (damage score 0-5): 1

## O=C1N2CCOC2C(O)N1c1cc(C(F)(F)F)ccn1 (stereo not drawn) [Compound A75]
AMARE [1]
  AMARE damage score, application pre-emergence: 5
SETFA [2]
  SETFA damage score, application pre-emergence: 4
ABUTH [3]
  ABUTH damage score, application pre-emergence: 5
ECHCG [4]
  ECHCG damage score, application pre-emergence: 4
ZEAMX [5]
  ZEAMX damage score, application pre-emergence: 2
AMARE [6]
  Post-emergence herbicidal activity AMARE (damage score 0-5): 5
SETFA [7]
  Post-emergence herbicidal activity SETFA (damage score 0-5): 5
ABUTH [8]
  Post-emergence herbicidal activity ABUTH (damage score 0-5): 5
ECHCG [9]
  Post-emergence herbicidal activity ECHCG (damage score 0-5): 5
ZEAMX [10]
  Post-emergence herbicidal activity ZEAMX (damage score 0-5): 2

## COC[C@@H]1C(O)N(c2cc(C(F)(F)F)ccn2)C(=O)N1C (stereo partly drawn) [Compound A77]
AMARE [1]
  AMARE damage score, application pre-emergence: 5
SETFA [2]
  SETFA damage score, application pre-emergence: 5
ABUTH [3]
  ABUTH damage score, application pre-emergence: 5
ECHCG [4]
  ECHCG damage score, application pre-emergence: 5
ZEAMX [5]
  ZEAMX damage score, application pre-emergence: 3
AMARE [6]
  Post-emergence herbicidal activity AMARE (damage score 0-5): 5
SETFA [7]
  Post-emergence herbicidal activity SETFA (damage score 0-5): 5
ABUTH [8]
  Post-emergence herbicidal activity ABUTH (damage score 0-5): 5
ECHCG [9]
  Post-emergence herbicidal activity ECHCG (damage score 0-5): 5
ZEAMX [10]
  Post-emergence herbicidal activity ZEAMX (damage score 0-5): 5

## CCN1C(=O)N(c2cc(C(F)(F)F)ccn2)C(O)C1C (stereo not drawn) [Compound A88]
AMARE [1]
  AMARE damage score, application pre-emergence: 5
SETFA [2]
  SETFA damage score, application pre-emergence: 4
ABUTH [3]
  ABUTH damage score, application pre-emergence: 5
ECHCG [4]
  ECHCG damage score, application pre-emergence: 4
ZEAMX [5]
  ZEAMX damage score, application pre-emergence: 2
AMARE [6]
  Post-emergence herbicidal activity AMARE (damage score 0-5): 5
SETFA [7]
  Post-emergence herbicidal activity SETFA (damage score 0-5): 5
ABUTH [8]
  Post-emergence herbicidal activity ABUTH (damage score 0-5): 5
ECHCG [9]
  Post-emergence herbicidal activity ECHCG (damage score 0-5): 5
ZEAMX [10]
  Post-emergence herbicidal activity ZEAMX (damage score 0-5): 3

## CCOC1C(O)N(c2cc(Cl)c(C(=O)NC(C)(C)C)cn2)C(=O)N1C (stereo not drawn) [Compound A69]
AMARE [1]
  AMARE damage score, application pre-emergence: 5
SETFA [2]
  SETFA damage score, application pre-emergence: 5
ABUTH [3]
  ABUTH damage score, application pre-emergence: 5
ECHCG [4]
  ECHCG damage score, application pre-emergence: 5
ZEAMX [5]
  ZEAMX damage score, application pre-emergence: 2
AMARE [6]
  Post-emergence herbicidal activity AMARE (damage score 0-5): 4
SETFA [7]
  Post-emergence herbicidal activity SETFA (damage score 0-5): 4
ABUTH [8]
  Post-emergence herbicidal activity ABUTH (damage score 0-5): 5
ECHCG [9]
  Post-emergence herbicidal activity ECHCG (damage score 0-5): 5
ZEAMX [10]
  Post-emergence herbicidal activity ZEAMX (damage score 0-5): 3
